In patent publication US20080108573A1, “Compositions And Methods For Treatment Of Cardiovascular Disease” (priority 2004, published 2008):
Entries after “also recorded” stand apart in the source; their conditions may differ.

Legend:
[1] = tested on: WKY rats on high salt diet or high salt diet plus L-NAME; test: Myocardial VIP content after four week VIP infusion (Example 4); type: in vivo, rat; settings: four week intravenous infusion of VIP vs vehicle; WKY high salt diet, or high salt diet and L-NAME (FIGS. 7A and 7B)
Description: FIG. 7: A—Myocardial VIP concentrations in WKY rats on a high salt diet after a four week intravenous infusion of VIP or vehicle control. B—Myocardial VIP concentrations in WKY rats on a high salt diet and L-NAME (10 mg/kg) in the drinking water after a four week intravenous infusion of VIP or vehicle control.
(§1) VIP was measured by radioimmunoassay in known manner (see Davis R. E., Shelley S., Macdonald G. J. & Duggan K. A. (1992) The effects of a high sodium diet on the metabolism and secretion of vasoactive intestinal peptide in the rabbit. J. Physiol. 451:17-23. Duggan K. A., Ye V. Z. C., Jones D. M. Davis R. E. & Macdonald G. J. (1995) Effects of Endopeptidase 24.11 blockade on plasma and tissue concentrations of vasoactive intestinal peptide Clin. Sci. 89:267-271). The degree of myocardial fibrosis was quantitated by two methods in known manner (refer Ye V Z C, Hodge G, Yong J L C & Duggan K A (2002) Early myocardial fibrosis is associated with depletion of vasoactive intestinal peptide in the heart Exp. Physiol 87:539-546 Ye V Z C, Hodge G, Yong J L C & Duggan K A (2003) Myocardial VIP and myocardial fibrosis induced by nitric oxide synthase inhibition in the rat Acta Physiol. Scand. 179:353-360. Ye V Z C, Hodge G, Yong J L C & Duggan K A (2004) Vasopeptidase inhibition reverses myocardial VIP depletion and decreases myocardial fibrosis in salt sensitive hypertension Europ. […]

[2] = tested on: WKY rats on low, intermediate, high salt diet or high salt diet plus L-NAME; test: Acute VIP infusion: uptake of VIP by the myocardium (Examples 1 and 2); type: in vivo; settings: VIP 10 pmol/kg/min for one hour, rat models with increasing degree of fibrosis
Description: In preliminary studies a series of acute infusion experiments have been conducted in animal models.
Fourteen week old WKY rats were randomised to low salt diet (0.008%), intermediate salt diet (2.2%), high salt diet (4.4%) or high salt diet plus L-NAME (10 mg/kg/day) in the drinking water for 4 weeks (n=16 rats per group). On the day of the experiment the rats were anaesthetised and venous and arterial cannulae inserted. After a one hour rest equilibration period the rats were randomised to vehicle control (Haemaccell, Aventis) or VIP (10 pmol/kg/min) infusion for one hour at an infusion rate of 0.017 ml/min. The hearts were then harvested, myocardial VIP concentrations were measured and myocardial fibrosis quantitated.
The difference between the mean myocardial VIP concentrations after VIP or control infusion is a measure of VIP uptake by the heart.
(§2) VIP was measured by radioimmunoassay in known manner (see Davis R. E., Shelley S., Macdonald G. J. & Duggan K. A. (1992) The effects of a high sodium diet on the metabolism and secretion of vasoactive intestinal peptide in the rabbit. J. Physiol. 451:17-23. Duggan K. A., Ye V. Z. C., Jones D. M. Davis R. E. & Macdonald G. J. (1995) Effects of Endopeptidase 24.11 blockade on plasma and tissue concentrations of vasoactive intestinal peptide Clin. Sci. 89:267-271). […]

[3] = tested on: SHR and WKY rats on low/high salt diet, L-NAME plus high salt diet, or streptozotocin induced diabetes; test: Preliminary four-week VIP infusion in rat models of myocardial fibrosis (Example 1); type: in vivo; settings: VIP 7.2 nmol/kg/day via Alzet mini pump, four weeks, vs vehicle
From the text: Further preliminary experiments have been conducted on a number of animal models, which encompass a range of fibrous tissue replacement, varying from mild to moderate to severe. The experiments on the animal models encompassed a variety of aetiologies (alone and in combination) and a range of levels of induced fibrosis. For these experiments two types of rats were used, spontaneously hypertensive rats (SHR) and normotensive control Wistar-Kyoto rats (WKY). The WKY rats were given: 1) low salt diet, 2) high salt diet, or 3) L-NAME (ω-monomethyl-nitro-L-arginine; 10 mg/kg/day) plus high salt diet. The SHR rats were given low or high salt diets. The effect of VIP infusion in diabetic heart disease was also studied in the WKY rate with streptozotocin induced diabetes.
In each treatment group, rats were randomised to VIP or vehicle infusion (n=24 in each group) for four weeks. VIP was administered via Alzet mini pump at a rate of 7.2 nmol/kg/day.
After four weeks, the rats were anaesthetised and the hearts were harvested. Myocardial VIP concentrations and myocardial fibrosis were quantitated.

[4] = tested on: isolated trabeculae of human hearts; settings: human hearts of previously healthy individuals; cited from earlier work
isolated rat heart = isolated rat heart perfused with VIP, ischaemia then reperfusion; cited from earlier work
[5] = tested on: WKY rat fed a high salt diet; WKY rat fed a high salt diet and given L-NAME; test: Effect of VIP infusion on fibrosis in animal models of fibrosis (Example 3); type: in vivo; settings: VIP 5 pmol/kg/min, 4 weeks via Alzet minipump; WKY high salt diet and high salt diet plus L-NAME (FIGS. 2 and 3)
Description: Three animal models of myocardial fibrosis were used (animals obtained from Australian Animal Resources, Perth, Western Australia, Australia) • i) WKY rat fed a high salt diet • ii) WKY rat fed a high salt diet and given L-NAME (ω-monomethyl-nitro-L-arginine, Sigma Chemical Co.) 10 mg/kg/day in the drinking water • iii) WKY rats with diabetes induced by streptozotocin injection 60 mg/kg
In each model the rats were randomised to VIP (H-[…]NH2, obtained from Auspep, Australia) or vehicle control (Haemaccel, Aventis) infusion for 4 weeks via Alzet minipump (n=6-8 each experimental group). The dose of VIP was 5 pmol/kg/min.
In models i) and ii) 14 week old WKY rats were commenced on high salt diet or high salt diet plus L-NAME. […] Myocardial VIP and myocardial fibrosis were quantitated. […]
Myocardial VIP concentrations and myocardial fibrosis were quantitiated.
as §2

[6] = tested on: WKY rats on high salt diet, high salt diet plus L-NAME, or with streptozotocin induced diabetes; test: Regression of existing myocardial fibrosis after VIP infusion (Example 4); type: in vivo, rat; settings: VIP 5 pmol/kg/min, 4 weeks, three models: high salt, streptozotocin diabetes (FIGS. 4 to 6)
Description: as §1, with “Europ. J. Pharmacol. 485:235-242).” for “Europ.”

CC[C@H](C)[C@H](NC(=O)[C@H](CO)NC(=O)[C@H](CC(N)=O)NC(=O)[C@H](CC(C)C)NC(=O)[C@H](Cc1ccc(O)cc1)NC(=O)[C@H](CCCCN)NC(=O)[C@H](CCCCN)NC(=O)[C@@H](NC(=O)[C@H](C)NC(=O)[C@H](CCSC)NC(=O)[C@H](CCC(N)=O)NC(=O)[C@H](CCCCN)NC(=O)[C@H](CCCNC(=N)N)NC(=O)[C@H](CC(C)C)NC(=O)[C@H](CCCNC(=N)N)NC(=O)[C@@H](NC(=O)[C@H](Cc1ccc(O)cc1)NC(=O)[C@H](CC(N)=O)NC(=O)[C@H](CC(=O)O)NC(=O)[C@@H](NC(=O)[C@H](Cc1ccccc1)NC(=O)[C@@H](NC(=O)[C@H](C)NC(=O)[C@H](CC(=O)O)NC(=O)[C@H](CO)NC(=O)[C@@H](N)Cc1c[nH]cn1)C(C)C)[C@@H](C)O)[C@@H](C)O)C(C)C)C(=O)N[C@@H](CC(C)C)C(=O)N[C@@H](CC(N)=O)C(N)=O [VIP]
myocardial content of VIP / uptake of exogenous VIP [1]: clear association between the degree of fibrosis and uptake of exogenous VIP
uptake of VIP by the heart from the plasma (difference between mean myocardial VIP concentrations after VIP or control infusion) [2]: As fibrosis worsens the amount of VIP taken up by the heart increases; also recorded: more avid with increasing degrees of fibrosis; also recorded: the higher the level of fibrosis, the greater the uptake of VIP by the heart; also recorded: found to increase as the degree of fibrosis increased
myocardial fibrosis index, treated rats compared to the control groups [3]: significantly lower
ionotropic effect in atria and ventricles [4]: direct positive ionotropic effect
myocardial function (left ventricular functions, coronary flow, tissue injury) (isolated rat heart): significant improvement of myocardial function
myocardial fibrosis index, treated rats compared to the control groups [5]: significantly lower
regression of existing myocardial fibrosis [6]: regression of myocardial fibrosis in the three models
